# Data published in the supplement of paper PMC9663587.
# Legend:
# [1] = compound: CCc1cnn2c(NCc3ccc[n+]([O-])c3)cc(N3CCCC[C@H]3CCO)nc12; assay: GR value, 72 h; higher = faster growth (1 = untreated, <0 = killing);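 also: breast cancer and non-malignant breast epithelial lines, nine half-log doses, viable cells counted by Hoechst and LIVE/DEAD dye imaging versus time-zero plates and DMSO controls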
# THZ1 = compound: CN(C)C/C=C/C(=O)Nc1ccc(C(=O)Nc2cccc(Nc3ncc(Cl)c(-c4c[nH]c5ccccc45)n3)c2)cc1 [THZ1]; assay: as above
# BSJ-03-123 = compound: CC(=O)c1c(C)c2cnc(Nc3ccc(N4CCN(CCOCCOCCOCCNC(=O)COc5cccc6c5C(=O)N(C5CCC(=O)NC5=O)C6=O)CC4)cn3)nc2n(C2CCCC2)c1=O [BSJ-03-123]; assay: as above
# [2] = compound: CCN1CCN(Cc2ccc(Nc3ncc(F)c(-c4cc(F)c5nc(C)n(C(C)C)c5c4)n3)nc2)CC1; assay: as above
# Flavopiridol [3] = compound: T1, CN1CC[C@H](c2c(O)cc(O)c3c(=O)cc(-c4ccccc4Cl)oc23)[C@H](O)C1 [Flavopiridol]; assay: as above
# LEE011/Ribociclib [4] = compound: T2, CN(C)C(=O)c1cc2cnc(Nc3ccc(N4CCNCC4)cn3)nc2n1C1CCCC1 [LEE011/Ribociclib]; assay: as above
# [5] = compound: CC(=O)c1c(C)c2cnc(Nc3ccc(N4CCNCC4)cn3)nc2n(C2CCCC2)c1=O; assay: as above
# Neratinib/HKI272 = compound: CCOc1cc2ncc(C#N)c(Nc3ccc(OCc4ccccn4)c(Cl)c3)c2cc1NC(=O)/C=C/CN(C)C [Neratinib/HKI272]; assay: as above
# [6] = compound: CCN1CCN(Cc2ccc(Nc3ncc(F)c(-c4cc(F)c5nc(C)n(C(C)C)c5c4)n3)nc2)CC1; assay: increase in dead-cell fraction, 72 h; higher = more death;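 also: breast cancer cell lines in 384-well plates, stained with Hoechst plus LIVE/DEAD far red dye and imaged, cells above an LDR intensity threshold counted dead, Hoechst-negative corpses included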
# Flavopiridol [7] = compound: T1, Flavopiridol; assay: as above
# LEE011/Ribociclib [8] = compound: T2, LEE011/Ribociclib; assay: as above
# [9] = compound: CC(=O)c1c(C)c2cnc(Nc3ccc(N4CCNCC4)cn3)nc2n(C2CCCC2)c1=O; assay: as above
cell line,measurement,setting,value
HCC1937,GR value,[1]; 0.0001 µM,1.02 GR
same,GR value,[1]; 0.0003162 µM,1.03 GR
same,GR value,[1]; 0.001 µM,1.06 GR
same,GR value,[1]; 0.003162 µM,1.1 GR
same,GR value,[1]; 0.01 µM,0.983 GR
same,GR value,[1]; 0.03162 µM,0.0186 GR
same,GR value,[1]; 0.1 µM,-0.185 GR
same,GR value,[1]; 0.3162 µM,-0.211 GR
same,GR value,[1]; 1 µM,-0.206 GR
same,GR value,THZ1; 0.0001 µM,0.926 GR
same,GR value,THZ1; 0.0003162 µM,0.922 GR
same,GR value,THZ1; 0.001 µM,0.98 GR
same,GR value,THZ1; 0.003162 µM,1.05 GR
same,GR value,THZ1; 0.01 µM,1.14 GR
same,GR value,THZ1; 0.03162 µM,0.808 GR
same,GR value,THZ1; 0.1 µM,0.104 GR
same,GR value,THZ1; 0.3162 µM,-0.107 GR
same,GR value,THZ1; 1 µM,-0.38 GR
same,GR value,BSJ-03-123; 0.001 µM,1.11 GR
same,GR value,BSJ-03-123; 0.003162 µM,1.04 GR
same,GR value,BSJ-03-123; 0.01 µM,0.933 GR
same,GR value,BSJ-03-123; 0.03162 µM,1.05 GR
same,GR value,BSJ-03-123; 0.1 µM,0.961 GR
same,GR value,BSJ-03-123; 0.3162 µM,1.03 GR
same,GR value,BSJ-03-123; 1 µM,0.918 GR
same,GR value,BSJ-03-123; 3.162 µM,0.977 GR
same,GR value,BSJ-03-123; 10 µM,0.525 GR
same,GR value,[2]; 0.001 µM,1.03 GR
same,GR value,[2]; 0.003162 µM,1.04 GR
same,GR value,[2]; 0.01 µM,1.06 GR
same,GR value,[2]; 0.03162 µM,1.08 GR
same,GR value,[2]; 0.1 µM,0.973 GR
same,GR value,[2]; 0.3162 µM,0.941 GR
same,GR value,[2]; 1 µM,0.81 GR
same,GR value,[2]; 3.162 µM,0.598 GR
same,GR value,[2]; 10 µM,0.321 GR
same,GR value,Flavopiridol [3]; 0.0001 µM,1.08 GR
same,GR value,Flavopiridol [3]; 0.0003162 µM,1.02 GR
same,GR value,Flavopiridol [3]; 0.001 µM,0.946 GR
same,GR value,Flavopiridol [3]; 0.003162 µM,1.01 GR
same,GR value,Flavopiridol [3]; 0.01 µM,0.918 GR
same,GR value,Flavopiridol [3]; 0.03162 µM,1.01 GR
same,GR value,Flavopiridol [3]; 0.1 µM,0.691 GR
same,GR value,Flavopiridol [3]; 0.3162 µM,0.19 GR
same,GR value,Flavopiridol [3]; 1 µM,-0.211 GR
same,GR value,LEE011/Ribociclib [4]; 0.001 µM,0.945 GR
same,GR value,LEE011/Ribociclib [4]; 0.003162 µM,0.893 GR
same,GR value,LEE011/Ribociclib [4]; 0.01 µM,1.14 GR
same,GR value,LEE011/Ribociclib [4]; 0.03162 µM,1.02 GR
same,GR value,LEE011/Ribociclib [4]; 0.1 µM,1 GR
same,GR value,LEE011/Ribociclib [4]; 0.3162 µM,0.875 GR
same,GR value,LEE011/Ribociclib [4]; 1 µM,0.964 GR
same,GR value,LEE011/Ribociclib [4]; 3.162 µM,1.02 GR
same,GR value,LEE011/Ribociclib [4]; 10 µM,1.11 GR
same,GR value,[5]; 0.0003162 µM,1.04 GR
same,GR value,[5]; 0.001 µM,1.1 GR
same,GR value,[5]; 0.003162 µM,1.13 GR
same,GR value,[5]; 0.01 µM,1.1 GR
same,GR value,[5]; 0.03162 µM,1.06 GR
same,GR value,[5]; 0.1 µM,1.03 GR
same,GR value,[5]; 0.3162 µM,0.99 GR
same,GR value,[5]; 1 µM,1.07 GR
same,GR value,[5]; 3.162 µM,1.07 GR
same,GR value,Neratinib/HKI272; 0.0003162 µM,0.987 GR
same,GR value,Neratinib/HKI272; 0.001 µM,1.03 GR
same,GR value,Neratinib/HKI272; 0.003162 µM,0.951 GR
same,GR value,Neratinib/HKI272; 0.01 µM,0.945 GR
same,GR value,Neratinib/HKI272; 0.03162 µM,0.897 GR
same,GR value,Neratinib/HKI272; 0.1 µM,0.824 GR
same,GR value,Neratinib/HKI272; 0.3162 µM,0.735 GR
same,GR value,Neratinib/HKI272; 1 µM,0.633 GR
same,GR value,Neratinib/HKI272; 3.162 µM,0.295 GR
same,increase in dead-cell fraction,[6]; 0.001 µM,-0.0017
same,increase in dead-cell fraction,[6]; 0.003162 µM,-0.0029
same,increase in dead-cell fraction,[6]; 0.01 µM,-0.0019
same,increase in dead-cell fraction,[6]; 0.03162 µM,-0.0004
same,increase in dead-cell fraction,[6]; 0.1 µM,-0.0064
same,increase in dead-cell fraction,[6]; 0.3162 µM,-0.0073
same,increase in dead-cell fraction,[6]; 1 µM,-0.0012
same,increase in dead-cell fraction,[6]; 3.162 µM,0.0025
same,increase in dead-cell fraction,[6]; 10 µM,0.0559
same,increase in dead-cell fraction,Flavopiridol [7]; 0.0001 µM,-0.0009
same,increase in dead-cell fraction,Flavopiridol [7]; 0.0003162 µM,-0.0013
same,increase in dead-cell fraction,Flavopiridol [7]; 0.001 µM,-0.0022
same,increase in dead-cell fraction,Flavopiridol [7]; 0.003162 µM,-0.0083
same,increase in dead-cell fraction,Flavopiridol [7]; 0.01 µM,0.0073
same,increase in dead-cell fraction,Flavopiridol [7]; 0.03162 µM,0
same,increase in dead-cell fraction,Flavopiridol [7]; 0.1 µM,0.0006
same,increase in dead-cell fraction,Flavopiridol [7]; 0.3162 µM,0.0316
same,increase in dead-cell fraction,Flavopiridol [7]; 1 µM,0.0846
same,increase in dead-cell fraction,LEE011/Ribociclib [8]; 0.001 µM,-0.0088
same,increase in dead-cell fraction,LEE011/Ribociclib [8]; 0.003162 µM,-0.0054
same,increase in dead-cell fraction,LEE011/Ribociclib [8]; 0.01 µM,-0.0115
same,increase in dead-cell fraction,LEE011/Ribociclib [8]; 0.03162 µM,-0.0122
same,increase in dead-cell fraction,LEE011/Ribociclib [8]; 0.1 µM,-0.0012
same,increase in dead-cell fraction,LEE011/Ribociclib [8]; 0.3162 µM,-0.0035
same,increase in dead-cell fraction,LEE011/Ribociclib [8]; 1 µM,-0.0021
same,increase in dead-cell fraction,LEE011/Ribociclib [8]; 3.162 µM,-0.0077
same,increase in dead-cell fraction,LEE011/Ribociclib [8]; 10 µM,0.0003
same,increase in dead-cell fraction,[9]; 0.0003162 µM,-0.0018
same,increase in dead-cell fraction,[9]; 0.001 µM,-0.0051
same,increase in dead-cell fraction,[9]; 0.003162 µM,0.0021
same,increase in dead-cell fraction,[9]; 0.01 µM,0.0002
same,increase in dead-cell fraction,[9]; 0.03162 µM,-0.0009
same,increase in dead-cell fraction,[9]; 0.1 µM,-0.0009
same,increase in dead-cell fraction,[9]; 0.3162 µM,-0.0038
same,increase in dead-cell fraction,[9]; 1 µM,-0.0027
same,increase in dead-cell fraction,[9]; 3.162 µM,-0.0018
